Assay results taken from patent publication US20230391768A2, “IMIDAZOPYRIDINE DERIVATIVES AND AZA-IMIDAZOPYRIDINE DERIVATIVES AS JANUS KINASE 2 INHIBITORS AND USES THEREOF” (Dana-Farber Cancer Institute, Inc., priority 2018, published 2023).

Columns and labels:
Assay in all cases: KINOMEscan
Assay type in all cases: binding
Conditions in all cases: read-out: percent of control
MEK2 = MEK2 (Homo sapiens (Human), UniProt P36507)
Description: (§1) In vitro profiling of Compound I-2 (1 μM) was performed using the DiscoveRx KINOMEscan® platform.

CDK4 = CDK4 (Homo sapiens (Human), UniProt P11802)
Description: as §1

FES = FES (Homo sapiens (Human), UniProt P07332)
Description: as §1

TAOK1 = TAOK1 (Homo sapiens (Human), UniProt Q7L7X3)
TAOK1, sequence (Q7L7X3 whole entry): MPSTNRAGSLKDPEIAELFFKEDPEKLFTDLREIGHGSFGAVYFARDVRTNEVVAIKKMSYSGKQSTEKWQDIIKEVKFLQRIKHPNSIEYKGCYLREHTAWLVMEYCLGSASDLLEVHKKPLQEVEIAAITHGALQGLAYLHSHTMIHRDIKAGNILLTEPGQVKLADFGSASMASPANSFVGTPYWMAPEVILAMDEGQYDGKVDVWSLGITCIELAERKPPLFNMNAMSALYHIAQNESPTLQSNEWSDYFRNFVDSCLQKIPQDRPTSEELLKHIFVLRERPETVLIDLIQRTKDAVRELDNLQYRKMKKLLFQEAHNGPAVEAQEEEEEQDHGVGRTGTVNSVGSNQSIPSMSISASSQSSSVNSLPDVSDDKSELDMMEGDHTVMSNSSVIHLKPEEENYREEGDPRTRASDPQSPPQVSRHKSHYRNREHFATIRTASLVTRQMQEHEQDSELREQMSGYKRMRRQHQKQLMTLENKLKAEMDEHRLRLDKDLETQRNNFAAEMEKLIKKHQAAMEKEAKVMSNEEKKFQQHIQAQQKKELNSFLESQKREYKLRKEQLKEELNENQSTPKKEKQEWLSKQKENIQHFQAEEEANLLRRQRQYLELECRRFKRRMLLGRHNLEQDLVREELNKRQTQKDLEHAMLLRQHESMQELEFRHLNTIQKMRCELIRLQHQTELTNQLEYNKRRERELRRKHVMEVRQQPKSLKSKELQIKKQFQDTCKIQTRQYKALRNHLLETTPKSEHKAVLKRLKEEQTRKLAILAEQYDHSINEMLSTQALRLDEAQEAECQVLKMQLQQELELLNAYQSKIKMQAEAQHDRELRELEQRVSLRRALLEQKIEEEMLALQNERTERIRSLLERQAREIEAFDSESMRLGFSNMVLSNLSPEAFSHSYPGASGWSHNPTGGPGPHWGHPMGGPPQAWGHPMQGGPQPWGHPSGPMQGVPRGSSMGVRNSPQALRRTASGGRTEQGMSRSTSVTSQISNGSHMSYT
Description: as §1

GSK3B = GSK3B (Homo sapiens (Human), UniProt P49841)
Description: as §1

PRKCD = PRKCD (Homo sapiens (Human), UniProt Q05655)
Description: as §1

NDR2 = NDR2 (Homo sapiens (Human), UniProt Q9Y2H1)
Description: as §1

MEK4 = MEK4 (Homo sapiens (Human), UniProt P45985)
Description: as §1

SGK = SGK (Homo sapiens (Human), UniProt O00141)
Description: as §1

TLK2 = TLK2 (Homo sapiens (Human), UniProt Q86UE8)
Description: as §1

KIT(V559D,T670I) = KIT(V559D,T670I) (Homo sapiens (Human), UniProt P10721, T670I/V559D)
Description: as §1

MINK = MINK (Homo sapiens (Human), UniProt Q8N4C8)
Description: as §1

EPHB4 = EPHB4 (Homo sapiens (Human), UniProt P54760)
Description: as §1

ANKK1 = ANKK1 (Homo sapiens (Human), UniProt Q8NFD2)
Description: as §1

[1] = target: RSK2 (Kin.Dom.2-C-terminal) (Homo sapiens (Human), UniProt P51812)
Description: as §1

PFTAIRE2 = PFTAIRE2 (Homo sapiens (Human), UniProt Q96Q40)
Description: as §1

RIOK3 = RIOK3 (Homo sapiens (Human), UniProt O14730)
RIOK3, sequence (O14730 whole entry): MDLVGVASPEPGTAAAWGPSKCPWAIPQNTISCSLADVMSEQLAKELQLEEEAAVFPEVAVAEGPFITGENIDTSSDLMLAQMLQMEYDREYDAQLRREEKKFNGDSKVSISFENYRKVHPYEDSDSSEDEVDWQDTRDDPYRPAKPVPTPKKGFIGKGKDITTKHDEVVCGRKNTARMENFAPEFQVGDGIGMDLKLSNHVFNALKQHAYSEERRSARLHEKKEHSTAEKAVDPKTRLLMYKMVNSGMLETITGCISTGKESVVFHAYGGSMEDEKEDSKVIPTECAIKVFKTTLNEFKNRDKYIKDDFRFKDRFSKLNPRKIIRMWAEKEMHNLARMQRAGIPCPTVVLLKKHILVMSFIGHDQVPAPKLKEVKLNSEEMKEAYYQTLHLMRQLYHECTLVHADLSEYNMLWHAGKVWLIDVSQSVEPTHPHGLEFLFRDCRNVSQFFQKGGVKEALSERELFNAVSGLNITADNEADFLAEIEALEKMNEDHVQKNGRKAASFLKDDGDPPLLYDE
Description: as §1

MAP3K3 = MAP3K3 (Homo sapiens (Human), UniProt Q99759)
Description: as §1

TRKC = TRKC (Homo sapiens (Human), UniProt Q16288)
Description: as §1

FLT3 (K663Q) = FLT3 (K663Q) (Homo sapiens (Human), UniProt P36888, K663Q)
Description: as §1

FLT1 = FLT1 (Homo sapiens (Human), UniProt P17948)
Description: as §1

[2] = target: TYK2(JH1domain-catalytic) (Homo sapiens (Human), UniProt P29597)
Description: as §1

ERK4 = ERK4 (Homo sapiens (Human), UniProt P31152)
ERK4, sequence (P31152 whole entry): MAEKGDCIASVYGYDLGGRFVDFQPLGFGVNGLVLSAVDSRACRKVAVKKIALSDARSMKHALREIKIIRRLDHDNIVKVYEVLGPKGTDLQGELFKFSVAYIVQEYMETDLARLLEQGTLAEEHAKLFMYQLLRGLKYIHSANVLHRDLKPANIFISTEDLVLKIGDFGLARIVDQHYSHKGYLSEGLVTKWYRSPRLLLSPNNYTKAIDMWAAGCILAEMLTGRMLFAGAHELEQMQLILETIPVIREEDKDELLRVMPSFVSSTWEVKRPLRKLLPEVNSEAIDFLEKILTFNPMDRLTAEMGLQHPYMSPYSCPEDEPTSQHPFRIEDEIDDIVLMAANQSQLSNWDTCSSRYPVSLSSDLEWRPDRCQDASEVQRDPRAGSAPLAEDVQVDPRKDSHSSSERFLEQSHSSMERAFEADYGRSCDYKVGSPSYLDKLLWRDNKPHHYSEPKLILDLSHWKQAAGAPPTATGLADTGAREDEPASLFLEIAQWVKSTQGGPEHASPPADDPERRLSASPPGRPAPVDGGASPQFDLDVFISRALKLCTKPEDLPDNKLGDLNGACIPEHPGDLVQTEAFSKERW
Description: as §1

CSNK1A1 = CSNK1A1 (Homo sapiens (Human), UniProt P48729)
Description: as §1

EGFR(L861Q) = EGFR(L861Q) (Homo sapiens (Human), UniProt P00533, L861Q)
Description: as §1

HIPK4 = HIPK4 (Homo sapiens (Human), UniProt Q8NE63)
Description: as §1

MAP3K2 = MAP3K2 (Homo sapiens (Human), UniProt Q9Y2U5)
Description: as §1

[3] = target: RPS6KA5 (Kin.Dom.2-C-terminal) (Homo sapiens (Human), UniProt O75582)
RPS6KA5 (Kin.Dom.2-C-terminal), sequence (O75582 426-687): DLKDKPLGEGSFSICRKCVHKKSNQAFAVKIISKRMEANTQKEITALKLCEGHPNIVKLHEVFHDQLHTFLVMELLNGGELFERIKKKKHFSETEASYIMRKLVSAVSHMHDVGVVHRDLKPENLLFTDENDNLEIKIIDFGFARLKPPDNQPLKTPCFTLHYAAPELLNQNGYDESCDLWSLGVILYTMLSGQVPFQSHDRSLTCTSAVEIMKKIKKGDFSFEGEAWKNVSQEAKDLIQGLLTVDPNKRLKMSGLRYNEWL
Description: as §1

PLK2 = PLK2 (Homo sapiens (Human), UniProt Q9NYY3)
Description: as §1

MET = MET (Homo sapiens (Human), UniProt P08581)
Description: as §1

FGFR2 = FGFR2 (Homo sapiens (Human), UniProt P21802)
Description: as §1

TEC = TEC (Homo sapiens (Human), UniProt P42680)
TEC, sequence (P42680 whole entry): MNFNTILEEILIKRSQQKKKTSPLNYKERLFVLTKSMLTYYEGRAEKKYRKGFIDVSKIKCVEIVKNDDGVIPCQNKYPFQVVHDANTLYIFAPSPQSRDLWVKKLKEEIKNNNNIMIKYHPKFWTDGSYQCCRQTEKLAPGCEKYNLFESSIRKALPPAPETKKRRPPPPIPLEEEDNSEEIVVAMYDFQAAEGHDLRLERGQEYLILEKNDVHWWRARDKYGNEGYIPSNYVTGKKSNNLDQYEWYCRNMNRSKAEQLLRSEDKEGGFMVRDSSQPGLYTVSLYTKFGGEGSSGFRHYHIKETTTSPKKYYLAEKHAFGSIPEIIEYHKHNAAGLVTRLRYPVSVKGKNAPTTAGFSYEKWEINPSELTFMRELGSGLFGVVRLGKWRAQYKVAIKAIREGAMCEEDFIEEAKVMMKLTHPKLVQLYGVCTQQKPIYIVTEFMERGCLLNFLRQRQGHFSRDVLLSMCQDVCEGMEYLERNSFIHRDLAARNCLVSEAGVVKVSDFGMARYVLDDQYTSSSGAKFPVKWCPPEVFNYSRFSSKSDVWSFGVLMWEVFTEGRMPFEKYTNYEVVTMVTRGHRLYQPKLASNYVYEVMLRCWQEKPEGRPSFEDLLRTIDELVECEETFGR
Description: as §1

CLK4 = CLK4 (Homo sapiens (Human), UniProt Q9HAZ1)
Description: as §1

MAPKAPK2 = MAPKAPK2 (Homo sapiens (Human), UniProt P49137)
Description: as §1

[4] = target: JAK1(JH2domainpseudokinase) (Homo sapiens (Human), UniProt P23458)
JAK1(JH2domainpseudokinase), sequence (P23458 583-855 limits assumed): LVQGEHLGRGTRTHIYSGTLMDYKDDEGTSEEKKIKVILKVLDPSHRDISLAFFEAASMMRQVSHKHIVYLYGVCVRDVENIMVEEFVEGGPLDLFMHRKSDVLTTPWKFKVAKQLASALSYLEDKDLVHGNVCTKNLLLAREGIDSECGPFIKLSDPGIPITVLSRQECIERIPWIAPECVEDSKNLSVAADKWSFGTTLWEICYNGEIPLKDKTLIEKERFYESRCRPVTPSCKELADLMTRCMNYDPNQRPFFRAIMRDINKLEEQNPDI
Description: as §1

EGFR(S752-I759del) = EGFR(S752-I759del) (Homo sapiens (Human), UniProt P00533, DEL752-759)
EGFR(S752-I759del), sequence (P00533 other isoform, or with tags, fused parts or gaps del S752-I759): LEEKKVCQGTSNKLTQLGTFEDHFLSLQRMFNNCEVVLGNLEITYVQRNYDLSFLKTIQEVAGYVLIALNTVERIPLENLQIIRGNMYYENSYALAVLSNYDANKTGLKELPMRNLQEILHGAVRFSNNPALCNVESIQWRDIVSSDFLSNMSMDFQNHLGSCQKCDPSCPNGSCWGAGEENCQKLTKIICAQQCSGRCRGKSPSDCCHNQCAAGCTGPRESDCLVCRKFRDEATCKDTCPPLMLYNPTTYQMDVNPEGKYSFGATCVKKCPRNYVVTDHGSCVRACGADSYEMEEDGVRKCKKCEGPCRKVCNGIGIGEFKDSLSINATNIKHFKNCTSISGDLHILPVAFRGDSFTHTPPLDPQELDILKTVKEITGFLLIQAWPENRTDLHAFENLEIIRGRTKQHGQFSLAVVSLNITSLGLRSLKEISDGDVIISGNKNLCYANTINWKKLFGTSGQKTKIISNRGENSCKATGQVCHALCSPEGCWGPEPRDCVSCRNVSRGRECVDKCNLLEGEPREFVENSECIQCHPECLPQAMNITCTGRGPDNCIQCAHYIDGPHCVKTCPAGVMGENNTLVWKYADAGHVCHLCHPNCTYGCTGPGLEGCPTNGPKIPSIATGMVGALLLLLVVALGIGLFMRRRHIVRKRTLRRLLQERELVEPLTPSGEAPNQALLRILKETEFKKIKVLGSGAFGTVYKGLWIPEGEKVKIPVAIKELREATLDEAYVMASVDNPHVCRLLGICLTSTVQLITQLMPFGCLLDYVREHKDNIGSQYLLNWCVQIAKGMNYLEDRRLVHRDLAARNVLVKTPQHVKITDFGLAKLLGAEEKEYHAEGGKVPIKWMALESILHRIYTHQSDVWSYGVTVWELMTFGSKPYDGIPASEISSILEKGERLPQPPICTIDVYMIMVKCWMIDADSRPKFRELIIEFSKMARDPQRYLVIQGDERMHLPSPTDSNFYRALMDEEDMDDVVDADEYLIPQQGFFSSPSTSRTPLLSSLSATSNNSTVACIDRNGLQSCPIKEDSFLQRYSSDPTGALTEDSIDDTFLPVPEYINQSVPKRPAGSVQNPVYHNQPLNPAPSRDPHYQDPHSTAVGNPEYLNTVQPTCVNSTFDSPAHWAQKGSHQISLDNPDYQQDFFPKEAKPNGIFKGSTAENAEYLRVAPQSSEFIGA
Description: as §1

DYRK2 = DYRK2 (Homo sapiens (Human), UniProt Q92630)
Description: as §1

PRKCQ = PRKCQ (Homo sapiens (Human), UniProt Q04759)
Description: as §1

MEK2, sequence (P36507 whole entry): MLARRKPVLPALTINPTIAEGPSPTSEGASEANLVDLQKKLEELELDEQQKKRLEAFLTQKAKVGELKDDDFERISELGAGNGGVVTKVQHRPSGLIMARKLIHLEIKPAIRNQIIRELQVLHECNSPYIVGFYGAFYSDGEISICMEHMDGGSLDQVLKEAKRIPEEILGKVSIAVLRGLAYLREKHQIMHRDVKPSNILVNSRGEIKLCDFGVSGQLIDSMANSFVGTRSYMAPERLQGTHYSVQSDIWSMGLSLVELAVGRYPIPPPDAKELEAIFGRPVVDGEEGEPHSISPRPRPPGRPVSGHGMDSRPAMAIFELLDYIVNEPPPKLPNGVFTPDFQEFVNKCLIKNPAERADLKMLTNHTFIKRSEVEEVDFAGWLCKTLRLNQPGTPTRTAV

Structure (SMILES)	remaining binding at 1 µM (MEK2) [%]	remaining binding at 1 µM (CDK4) [%]	remaining binding at 1 µM (FES) [%]	remaining binding at 1 µM (TAOK1) [%]	remaining binding at 1 µM (GSK3B) [%]	remaining binding at 1 µM (PRKCD) [%]	remaining binding at 1 µM (NDR2) [%]	remaining binding at 1 µM (MEK4) [%]	remaining binding at 1 µM (SGK) [%]	remaining binding at 1 µM (TLK2) [%]	remaining binding at 1 µM (KIT(V559D,T670I)) [%]	remaining binding at 1 µM (MINK) [%]	remaining binding at 1 µM (EPHB4) [%]	remaining binding at 1 µM (ANKK1) [%]	remaining binding at 1 µM [1] [%]	remaining binding at 1 µM (PFTAIRE2) [%]	remaining binding at 1 µM (RIOK3) [%]	remaining binding at 1 µM (MAP3K3) [%]	remaining binding at 1 µM (TRKC) [%]	remaining binding at 1 µM (FLT3 (K663Q)) [%]	further results
CCN1CCN(Cc2cc(NC(=O)c3ccc(C)c(-c4ccc5nc(NC(=O)C6CC6)cn5n4)c3)cc(C(F)(F)F)c2)CC1 [Compound I-2, 3-(2-(cyclopropanecarboxamido)imidazo[1,2-b]pyridazin-6-yl)-N-(3-((4-ethylpiperazin-1-yl)methyl)-5-(trifluoromethyl)phenyl)-4-methylbenzamide]	95	46	12	3.9	93	40	98	98	83	100	6.6	0.6	1.3	100	78	0.9	100	48	0.05	5.6	remaining binding at 1 µM (FLT1): 3.2%; remaining binding at 1 µM [2]: 54%; remaining binding at 1 µM (ERK4): 96%; remaining binding at 1 µM (CSNK1A1): 73%; remaining binding at 1 µM (EGFR(L861Q)): 82%; remaining binding at 1 µM (HIPK4): 32%; remaining binding at 1 µM (MAP3K2): 28%; remaining binding at 1 µM [3]: 100%; remaining binding at 1 µM (PLK2): 90%; remaining binding at 1 µM (MET): 9.7%; remaining binding at 1 µM (FGFR2): 67%; remaining binding at 1 µM (TEC): 100%; remaining binding at 1 µM (CLK4): 11%; remaining binding at 1 µM (MAPKAPK2): 72%; remaining binding at 1 µM [4]: 100%; remaining binding at 1 µM (EGFR(S752-I759del)): 80%; remaining binding at 1 µM (DYRK2): 95%; remaining binding at 1 µM (PRKCQ): 27%
CCN1CCN(Cc2cc(NC(=O)c3ccc(C)c(-c4ccc5nc(NC(=O)C6CC6)cn5c4)c3)cc(C(F)(F)F)c2)CC1 [Compound I-6, 3-(2-(cyclopropanecarboxamido)imidazo[1,2-a]pyridin-6-yl)-N-(3-((4-ethylpiperazin-1-yl)methyl)-5-(trifluoromethyl)phenyl)-4-methylbenzamide]	95	36	0.95	4.5	100	48	59	71	92	98	5.5	2.4	0	100	100	3.6	90	56	0.05	4.2	remaining binding at 1 µM (FLT1): 3.2%; remaining binding at 1 µM [2]: 41%; remaining binding at 1 µM (ERK4): 100%; remaining binding at 1 µM (CSNK1A1): 100%; remaining binding at 1 µM (EGFR(L861Q)): 54%; remaining binding at 1 µM (HIPK4): 55%; remaining binding at 1 µM (MAP3K2): 78%; remaining binding at 1 µM [3]: 98%; remaining binding at 1 µM (PLK2): 96%; remaining binding at 1 µM (MET): 14%; remaining binding at 1 µM (FGFR2): 57%; remaining binding at 1 µM (TEC): 100%; remaining binding at 1 µM (CLK4): 28%; remaining binding at 1 µM (MAPKAPK2): 96%; remaining binding at 1 µM [4]: 72%; remaining binding at 1 µM (EGFR(S752-I759del)): 65%; remaining binding at 1 µM (DYRK2): 92%; remaining binding at 1 µM (PRKCQ): 74%
